Article PMC5444469, “Involvement of three putative glucosyltransferases from the UGT72 family in flavonol glucoside/rhamnoside biosynthesis in Lotus japonicus seeds” (Journal of Experimental Botany, 2016)
One block for each molecule: values may come before it.

What was measured:
Conditions in all cases: 4 mM UDP-glucose, pH 7.5, 30 °C, 10 mM DTT
UGT72AD1 = tested on: T1, UGT72AD1; assay: HPLC glucosylation assay; format: biochemical, Lotus japonicus
T1 construct: full-length ORF cloned from leaf cDNA; MBP fusion (pMAL-c2x), E. coli Novablue, maltose-resin purified

HPLC glucosylation assay [1] = substrate: O=c1c(O)c(-c2ccc(O)c(O)c2)oc2cc(O)cc(O)c12; assay: HPLC glucosylation assay; format: biochemical, Lotus japonicus
Text: (§1) HPLC glucosylation assay on UGT72Z2 | UGT72Z2 ...

HPLC glucosylation assay [2] = substrate: O=c1c(O)c(-c2ccc(O)cc2)oc2cc(O)cc(O)c12; assay: HPLC glucosylation assay; format: biochemical, Lotus japonicus
Text: as §1

purified protein = substrate: O=c1c(O)c(-c2cc(O)c(O)c(O)c2)oc2cc(O)cc(O)c12; assay: purified protein

Molecule: O=c1c(O)c(-c2ccc(O)c(O)c2)oc2cc(O)cc(O)c12 [quercetin]
- Km (UGT72AD1): 310 µM

B1: UGT72Z2 (Lotus japonicus) (protein)
chain: MAKTIHIAAVSIPAFSHQASIIEFCKKLLHLHHHYHVTCIFPTIDAPVAATLKLLQSLPSTIDFKFLPPVNKQDLPQDVSPAVQIQLAVSQSMPSFRDTMRSLHSTTPHLTALIADPFANEALEIGKEFNLLSYIYFPPSAMTLSLFLHLPKLHEEVSCEYRDLTEPIQIPGCIPIQGQDLPEHFQDRSSLAYDLILKRCKRFSLADGFLVNSFLELEEGTVKALQEQNRGNRGENRGNRGKNRGNRDSPVFLVGPVIQTGPSSEPKGSESEYCVRWLENQIPKSVLYVSFGSGGTLSQEQMNELAFGLELSGQKFLWVVRAPSDSANAAYLGVGNEDPLKFLPSGFIERTKGQGLVIPSWAPQTQILSHSSIGGFLTHCGWNSVLESIVLGVPMITWPLFAEQRMNAVLLTDGVKVALRPKFDENGIVKREEIAVVVKGLMQGEEGNGIHHRIEVLKEAAADALKEDGSSTRALSQFGNQIENFLALK
notes: full-length ORF cloned from leaf cDNA; MBP fusion (pMAL-c2x), E. coli Novablue, maltose-resin purified
- Km (HPLC glucosylation assay [1]): 68 µM
- Km (HPLC glucosylation assay [2]): 40 µM
- Km (purified protein): 46 µM

Continued, values first:

- Km (UGT72AD1): 330 µM
Molecule: O=c1c(O)c(-c2ccc(O)cc2)oc2cc(O)cc(O)c12 [kaempferol]

- Km (UGT72AD1): 390 µM
Molecule: O=c1c(O)c(-c2cc(O)c(O)c(O)c2)oc2cc(O)cc(O)c12 [myricetin]
